Calls of active or inactive are those of the source. The rule behind the calls is not given here.
Experiments:
[1] = target: T1, Metabotropic glutamate receptor 5 (Rattus norvegicus, UniProt P31424); assay: Displacement of [3H]MPEP from rat mGlu5 receptor expressed in rat cerebrocortical membrane measured after 1 hr; format: cell membranes
[2] = target: T2, Metabotropic glutamate receptor 5 (Homo sapiens, UniProt P41594); assay: Displacement of [3H]MPEP from recombinant human mGluR5a expressed in A18 cells measured after 1 hr; format: cell-based
T2 sequence (P41594 whole entry): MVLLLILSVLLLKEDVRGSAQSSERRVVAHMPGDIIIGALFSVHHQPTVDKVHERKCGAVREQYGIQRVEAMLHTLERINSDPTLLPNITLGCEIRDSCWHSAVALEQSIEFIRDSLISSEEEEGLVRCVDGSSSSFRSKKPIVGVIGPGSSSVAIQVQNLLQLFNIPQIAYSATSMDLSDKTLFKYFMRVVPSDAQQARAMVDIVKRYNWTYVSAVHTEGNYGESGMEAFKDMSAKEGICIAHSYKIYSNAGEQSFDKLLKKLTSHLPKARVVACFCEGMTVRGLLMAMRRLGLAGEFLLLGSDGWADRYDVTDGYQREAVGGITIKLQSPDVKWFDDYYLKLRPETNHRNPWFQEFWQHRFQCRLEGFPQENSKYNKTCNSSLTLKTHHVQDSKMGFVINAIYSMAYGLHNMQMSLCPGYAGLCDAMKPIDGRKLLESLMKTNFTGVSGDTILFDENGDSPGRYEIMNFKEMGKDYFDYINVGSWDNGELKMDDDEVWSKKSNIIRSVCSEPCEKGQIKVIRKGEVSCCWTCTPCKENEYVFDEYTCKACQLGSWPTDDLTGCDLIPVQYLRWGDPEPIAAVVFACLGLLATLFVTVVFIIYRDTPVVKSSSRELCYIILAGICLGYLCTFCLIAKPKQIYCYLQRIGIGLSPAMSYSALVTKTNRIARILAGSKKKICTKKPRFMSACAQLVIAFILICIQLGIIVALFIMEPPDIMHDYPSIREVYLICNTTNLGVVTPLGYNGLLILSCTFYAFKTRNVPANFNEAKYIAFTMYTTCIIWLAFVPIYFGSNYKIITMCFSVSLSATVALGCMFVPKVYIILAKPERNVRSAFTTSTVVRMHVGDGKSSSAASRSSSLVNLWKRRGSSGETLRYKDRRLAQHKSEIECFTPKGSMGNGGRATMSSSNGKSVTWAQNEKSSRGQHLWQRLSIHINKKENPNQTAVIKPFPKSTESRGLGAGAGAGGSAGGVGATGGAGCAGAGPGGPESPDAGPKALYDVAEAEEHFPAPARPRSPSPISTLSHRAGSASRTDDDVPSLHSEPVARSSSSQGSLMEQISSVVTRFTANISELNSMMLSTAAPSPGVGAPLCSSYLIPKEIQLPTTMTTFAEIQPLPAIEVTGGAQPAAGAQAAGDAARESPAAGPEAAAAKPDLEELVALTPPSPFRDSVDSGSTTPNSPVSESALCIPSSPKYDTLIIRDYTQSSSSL

Liver microsome [3] = assay: Intrinsic clearance in Wistar rat liver microsomes at 2.5 uM; format: ADME
Liver microsome [4] = assay: Intrinsic clearance in human liver microsomes at 2.5 uM; format: ADME
Rattus norvegicus [5] = assay: Anxiolytic activity in water deprived rat assessed as increase in number of accepted shocks at 10 mg/kg, po after 1 hr by Vogel punished drinking test; format: functional, organism-based
[6] = target: T1, Metabotropic glutamate receptor 5; assay: Displacement of [3H]-MPEP from rat mGlu5 receptor expressed in HEK293 cell membranes after 1 hr by scintillation counting analysis
[7] = target: T2, Metabotropic glutamate receptor 5; assay: Displacement of [3H]-MPEP from human mGlu5 receptor expressed in HEK293 cell membranes after 1 hr by scintillation counting analysis
Homo sapiens [8] = assay: Toxicity in human assessed as change in ECG administered as qd for 10 to 14 days by multiple ascending dose study; format: organism-based; conditions: in vivo
Homo sapiens [9] = species on record: Homo sapiens; assay: Toxicity in human at 1 to 120 mg by single ascending dose study; format: organism-based; conditions: in vivo
Rattus norvegicus [10] = assay: Anxiolytic activity in water deprived rat assessed as increase in number of accepted shocks at 1 mg/kg, po after 1 hr by Vogel punished drinking test; format: functional, organism-based
Homo sapiens [11] = assay: Toxicity in human assessed as change in ECG administered as bid for 10 to 14 days by multiple ascending dose study; format: organism-based; conditions: in vivo
Homo sapiens [12] = assay: Toxicity in human assessed as suicidal ideation and behavior administered as bid for 10 to 14 days by multiple ascending dose study; format: organism-based; conditions: in vivo
Homo sapiens [13] = assay: Toxicity in human assessed as suicidal ideation and behavior administered as qd for 10 to 14 days by multiple ascending dose study; format: organism-based; conditions: in vivo

T1 sequence (P31424 whole entry): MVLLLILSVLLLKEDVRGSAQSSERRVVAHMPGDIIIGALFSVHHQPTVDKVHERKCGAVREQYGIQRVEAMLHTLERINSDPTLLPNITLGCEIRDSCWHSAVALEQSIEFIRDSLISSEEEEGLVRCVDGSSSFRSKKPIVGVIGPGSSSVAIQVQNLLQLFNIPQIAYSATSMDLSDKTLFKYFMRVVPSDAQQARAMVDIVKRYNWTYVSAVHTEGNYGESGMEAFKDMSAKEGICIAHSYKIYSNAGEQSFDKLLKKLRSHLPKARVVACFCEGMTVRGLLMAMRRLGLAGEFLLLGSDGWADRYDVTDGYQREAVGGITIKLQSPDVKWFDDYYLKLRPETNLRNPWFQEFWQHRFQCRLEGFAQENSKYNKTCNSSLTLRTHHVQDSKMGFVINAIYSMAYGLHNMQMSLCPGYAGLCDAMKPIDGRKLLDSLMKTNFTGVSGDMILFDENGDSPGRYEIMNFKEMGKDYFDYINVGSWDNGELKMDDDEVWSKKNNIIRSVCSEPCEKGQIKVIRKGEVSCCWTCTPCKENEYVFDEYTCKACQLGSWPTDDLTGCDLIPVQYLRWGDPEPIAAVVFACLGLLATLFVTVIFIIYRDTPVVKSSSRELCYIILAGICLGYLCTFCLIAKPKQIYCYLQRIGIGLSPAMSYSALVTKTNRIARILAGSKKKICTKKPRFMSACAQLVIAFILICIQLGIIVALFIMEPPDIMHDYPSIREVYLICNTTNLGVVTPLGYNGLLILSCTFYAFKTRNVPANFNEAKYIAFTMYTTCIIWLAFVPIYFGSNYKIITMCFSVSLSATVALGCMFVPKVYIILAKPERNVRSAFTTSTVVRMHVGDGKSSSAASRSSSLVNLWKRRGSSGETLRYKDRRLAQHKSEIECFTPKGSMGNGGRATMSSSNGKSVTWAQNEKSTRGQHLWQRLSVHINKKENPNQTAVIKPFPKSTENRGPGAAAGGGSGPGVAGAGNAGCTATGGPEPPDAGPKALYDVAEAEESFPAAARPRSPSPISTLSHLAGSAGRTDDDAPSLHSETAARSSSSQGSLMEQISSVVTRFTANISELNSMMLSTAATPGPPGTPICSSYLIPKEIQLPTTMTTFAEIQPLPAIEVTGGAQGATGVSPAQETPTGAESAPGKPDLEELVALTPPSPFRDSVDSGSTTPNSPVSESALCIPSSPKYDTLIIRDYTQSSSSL

| Structure (SMILES) | Ki [1] [nM] | CLH (Liver microsome [3]) [mL/min/g] | CLH (Liver microsome [4]) [mL/min/g] | other results |
| --- | --- | --- | --- | --- |
| Cc1ccc(S(=O)(=O)c2cnc3ccccc3c2-c2ccc(Cl)cc2)cc1 | 9.5 | 17.5 | 2.12 | Ki [2]: 17 nM |
| Cc1nc(C#Cc2cccnc2)cs1 |  |  |  | Activity (Rattus norvegicus [5]): Active |
| O=S(=O)(c1ccc(Cl)c(F)c1)c1cnc2cc(F)ccc2c1-c1ccc(F)cc1 | 5.2 | 0.88 | 0.5 |  |
| CN1CC(=O)N=C1NC(=O)Nc1cccc(Cl)c1 [FENOBAM ANHYDROUS] |  |  |  | IC50 [6]: 51 nM; IC50 [7]: 51 nM |
| Cc1ccc(S(=O)(=O)c2sc3ncccc3c2-c2ccc(Cl)cc2)cc1 | 15 | 13.8 | 2.31 |  |
| O=S(=O)(c1cc(Cl)cc(Cl)c1)c1cnc2cc(F)ccc2c1-c1ccc(F)cc1 | 11.5 | 1.03 | 0.2 |  |
| N#Cc1cccc(S(=O)(=O)c2cnc3cc(F)ccc3c2-c2ccc(Cl)cc2)c1 | 5.3 | 0.25 | 0.31 | Activity (Homo sapiens [8]): Non-toxic; Activity (Homo sapiens [9]): Non-toxic; Activity (Rattus norvegicus [10]): Active; Activity (Homo sapiens [11]): Non-toxic; Activity (Homo sapiens [12]): Non-toxic; Activity (Homo sapiens [13]): Non-toxic |
| Cc1ccc(S(=O)(=O)c2cnc3ccccc3c2N2CCOCC2)cc1C | 68 | 18 | 3.37 | Ki [2]: 52 nM |
| O=S(=O)(c1ccc(F)c(F)c1)c1cnc2c(F)cccc2c1-c1ccc(Cl)cc1 | 8.4 | 0.19 | 0.28 |  |
| Cc1ccc(S(=O)(=O)c2cnc3ccccc3c2N2CCC(C)CC2)cc1 | 22 | 17.4 | 3.54 |  |

— ChEMBL document CHEMBL3763102, “4-Aryl-3-arylsulfonyl-quinolines as negative allosteric modulators of metabotropic GluR5 receptors: From HTS hit to development candidate” (Bioorg Med Chem Lett, 2016)
